What was measured:
[1] = tested on: fracture healing; settings: rats (Simon et al., 2002); cited from earlier work
[2] = tested on: fracture callous; assay: Mouse femur fracture model: histology and histomorphometry of fracture callous; format: in vivo, C57B/6 mice; settings: for new bone formation by histomorphometry: Day 7 and Day 10, compared with controls; for amount of unmineralized chondroid matrix / callous size: Day 7 and Day 10 post fracture, vs control; for early stages of fracture repair (Safranin-O histology): animals sacrificed at Days 7, 10 and 14, oral gavage, montelukast sodium 1.5 mg/kg/Day, zileuton 45 mg/kg/Day; for fracture bridging and callous remodeling: by Day 21 (data not shown); for amount of chondroid (quantification) / percent chondroid (quantification) / total callous size (quantification): compared to control, montelukast sodium vs zileuton not significant
Source text: Because leukotrienes have been reported as potent inflammatory agents and may have a role as negative regulators of mesenchymal stem cell (MSC) differentiation, it was reasonable to determine as to whether inhibiting the effect of the cysteinyl leukotrienes would enhance chondrocyte proliferation in a bone healing from a fracture. See, Example II. […] Day 0 post-fracture X-rays were taken while under anesthesia. See, FIG. 3. Subsequent X-rays were taken at Days 7, 10, 14, and 21 for all animals (N=4) until the time of sacrifice. […] Histological sections for Days 7, 10, and 14 post-fracture where the differences between treated and control groups were most readily identifiable at early time points. See, FIG. 4. For example, evidence of healing was readily visible between the two treatment groups versus control as early as Day 7.
(§1) C57B/6 mice were purchased (Charles River, Inc.Q3) and housed in the animal facility at the University of Massachusetts Medical School under IACUC approved protocol. Eight- to 9-week-old animals were used in the study.
(§2) Institutional approval was obtained and all procedures were undertaken in accordance with approved IACUC methods. Animals were administered general anesthesia using IP injections of ketamine and xylazine. A midline skin incision over the knee joint was utilized and a median parapatellar arthrotomy was performed to expose the trochlear groove. A pilot hole was made using a 25 gauge needle to gain access to the femoral canal. The central cannula from a 22 gauge spinal needle was inserted into the canal and passed to the proximal femur in retrograde fashion. The wire was backed out slightly, cut, and reinserted. Wounds were closed, and the femur was held in a fixed position while a drop weight from a standard height was used to deliver a fixed traumatic injury to the mid portion of the femur, generating a fracture via three point bending, and ensuring that fractures were generated using a traumatic method with reproducible energy of injury (Marturano et al., 2008).
(§3) Medications were suspended in 1% methylcellulose (Sigma, Inc.Q6) and delivered by direct intragastric delivery. […] As the study medications are both currently FDA approved for the treatment of reactive airway disease, our dosing frequency was based on current prescription guidelines. Montelukast sodium was administered once daily by oral gavage. At the time the study began, zileuton was only approved for four times per Day dosing; as the drug needed to be administered by oral gavage and to maintain the normal sleep/awake cycle of the mouse colonies in the animal facilities, three doses of zileuton were dosed at 6-h intervals, with a 12-h break from 8 pm to 8 am. Control animals received 1% methylcellulose carrier only by a single daily oral gavage. The first dose of all medications was administered on post-fracture Day 1.
All animals were examined pre- and post-fracture using live fluoroscopy with an inverted Xiscan 1000 fluoroscope. Pre-fracture imaging was used to confirm correct positioning of the stabilizing wire, and post-fracture imaging was used to confirm correct fracture location and configuration. Additionally, standard radiographs were obtained in all animals immediately post-fracture with a high resolution MX-20 Faxitron on mammography film. Animals were anesthetized for additional X-rays to document fracture repair at 7, […] Days post-fracture. Animals were sacrificed immediately post-fracture if the fracture was not diaphyseal and transverse.
Fracture specimens were harvested at various times (7, 10, 14, and 21 Days) and fixed in a solution of 4% paraformaldehyde, 0.1% CPC in PBS for 16 h at room temperature, and then embedded in paraffin after decalcification. Embedded tissues were sectioned into […] slices, mounted on silane-coated glass slides (FisherQ7), de-paraffinized, and re-hydrated. […]

[3] = tested on: fracture callous mRNA expression; assay: Quantitative real-time PCR of fracture callous tissue in mouse fracture model; format: in vivo, C57B/6 mice; settings: for Col 1 mRNA levels: Day 7, compared with controls (data not shown); for Runx2 mRNA levels: Day 10, vs control (montelukast sodium P<0.05; zileuton P=0.06); for osteocalcin mRNA levels: Day 10, vs control (montelukast sodium P<0.05; zileuton P=0.07); for CysLT1 receptor mRNA levels in fracture callous: Day 10, control peak expression significantly higher; for Col 10a1 mRNA levels: Day 14, vs control (P<0.01)
Source text: Fracture callous was harvested from animals (N=4) in the three treatment groups after sacrifice at days 7, 10, 14, and 21 and assayed for expression of chondrogenic markers by qPCR. See, FIG. 10. […] Although it is not necessary to understand the mechanism of an invention, it is believed that the expression of Sox9 and Col 2a mRNA indicate a cellular commitment to the chondrocyte phenotype.
as §1, §2
as §3, with “Montelukast sodium was administered once daily by oral gavage.” left out
Mice were sacrificed on Days 7, 10, 14, and 21 post-fracture. The fractured limb was carefully dissected free and all overlying tissue was carefully removed to expose the fracture callous. Callous tissue alone was then placed in TRIzol reagent, avoiding the underlying cortical bone. The tissue was ground using a Polytron homogenizer and total RNA was isolated as per the manufacturer's instructions (InvitrogenQ11). Any potential DNA contamination was removed by RNase-free DNase treatment. The reverse transcription reaction was performed on […] of total RNA using the First Strand Synthesis Kit and random hexamer primers (Invitrogen). Relative transcript levels were measured by real-time PCR in a […] reaction volume on 96-well plate using ABI PRISM 7000 FAST sequence detection system (Applied BiosystemsQ12), following the recommended protocol for SYBR-Green (Applied Biosystems). Transcript levels were normalized with 18S ribosomal RNA levels using primers from Applied Biosystems and SYBR-Green master mix (Applied Biosystems). The primers used for amplification are described in Table 2.
Student's t-test was performed to analyze the significance of the data for gene expression and histomorphometric analysis.

[4] = Day 10, vs control (P<0.05 for zileuton)

Row | SMILES | fracture healing (radiographic, histological, mechanical testing) [1] | new bone formation by histomorphometry [2] | amount of unmineralized chondroid matrix [2] | callous size [2] | early stages of fracture repair (Safranin-O histology) [2] | fracture bridging and callous remodeling [2] | amount of chondroid (quantification) [2] | percent chondroid (quantification) [2] | total callous size (quantification) [2] | Col 1 mRNA levels [3] | Col 2a1 mRNA expression [3, 4] | SOX9 mRNA expression [3, 4] | Runx2 mRNA levels [3] | osteocalcin mRNA levels [3] | CysLT1 receptor mRNA levels in fracture callous [3] | Col 10a1 mRNA levels [3] | Col 2a1 mRNA expression ([3]; Day 14, vs control (P<0.05)) | time of peak Sox9 mRNA levels ([3]; controls peak at day 7) | histone gene expression by qRT-PCR ([3]; data not shown)
1 | Cc1ccc(-c2cc(C(F)(F)F)nn2-c2ccc(S(N)(=O)=O)cc2)cc1 [celecoxib] | fracture healing failed | – | – | – | – | – | – | – | – | – | – | – | – | – | – | – | – | – | –
2 | CC(C)(O)c1ccccc1CCC(SCC1(CC(=O)O)CC1)c1cccc(C=Cc2ccc3ccc(Cl)cc3n2)c1 (centres unmarked) [montelukast sodium, [1-[[1-[3-[2-[(7-chloro-2-quinolyl)]vinyl]phenyl]-3-[2-(1-hydroxy-1-methyl-1-ethyl)phenyl]-propyl]sulfanylmethyl]-cyclopropyl]acetic acid] | – | significantly greater | markedly increased | dramatically larger | enhances | bridged the ends of the fracture and remodeled the callous to woven bone | significantly greater | significantly greater | significantly greater | decrease | not seen | not seen | higher | elevated | low | higher | elevated | peak later than controls at Day 10 | –
3 | CS(=O)(=O)c1ccc(C2=C(c3ccccc3)C(=O)OC2)cc1 [rofecoxib] | fracture healing failed | – | – | – | – | – | – | – | – | – | – | – | – | – | – | – | – | – | –
4 | CC(c1cc2ccccc2s1)N(O)C(N)=O (centres unmarked) [zileuton] | – | significantly greater | markedly increased | dramatically larger | enhances | bridged the ends of the fracture and remodeled the callous to woven bone | significantly greater | significantly greater | significantly greater | decrease | elevated | elevated | increased | elevated | low | significantly higher | – | – | higher

Reference: patent US20110021560A1, “Compositions And Methods For Regulating Chondrocyte Proliferation In Bone Disorders” (University of Massachusetts Medical School, priority 2009, published 2011)
